Experiments:
[1] = biological target: T1, Leukotriene B4 receptor 1 (Homo sapiens, UniProt Q15722); experiment: Displacement of [3H]LTB4 from LTB4 receptor expressed in human U937 cell membrane; type: cell membranes, U-937
[2] = biological target: T1, Leukotriene B4 receptor 1; experiment: Antagonist activity at LTB4 receptor in fura-2 loaded human U937 cells assessed as inhibition of LTB4-induced calcium mobilization; type: functional, cell-based, U-937
[3] = biological target: T1, Leukotriene B4 receptor 1; experiment: Binding affinity to LTB4 receptor in human U937 cells by whole cell assay; type: cell-based, U-937

T1 sequence (Q15722 whole entry): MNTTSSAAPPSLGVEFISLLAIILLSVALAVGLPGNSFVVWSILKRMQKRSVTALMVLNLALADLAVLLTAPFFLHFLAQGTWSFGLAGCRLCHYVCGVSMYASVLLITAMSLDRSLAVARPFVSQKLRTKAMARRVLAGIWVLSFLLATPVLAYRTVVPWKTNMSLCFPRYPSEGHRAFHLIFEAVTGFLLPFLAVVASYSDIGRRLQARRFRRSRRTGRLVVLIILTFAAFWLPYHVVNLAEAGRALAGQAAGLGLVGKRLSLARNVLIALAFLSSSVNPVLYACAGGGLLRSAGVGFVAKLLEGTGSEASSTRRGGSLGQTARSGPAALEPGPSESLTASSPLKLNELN

| Structure (SMILES) | IC50 [1] | Ki [1] | IC50 [2] | IC50 [3] |
| --- | --- | --- | --- | --- |
| CN1C(=N)N(C)/C(=N/c2nc(Cc3ccc4c(c3)OCO4)c(Cc3ccc4c(c3)OCO4)n2C)C1=O [LEUCETTAMIDINE] | 15.6 µM | 5.3 µM |  |  |
| Cn1c(N)nc(Cc2ccc3c(c2)OCO3)c1Cc1ccc2c(c1)OCO2 [LEUCETTAMINE A] | 4 µM | 1.3 µM | 4.6 µM | 0.75 µM |
| CN1C(=O)/C(=C/c2ccc3c(c2)OCO3)N=C1N [LEUCETTAMINE B] |  | 100 µM |  |  |
